# Experimental data taken from patent US11376215B2, “Feed composition for improving intraintestinal environment” (AJINOMOTO CO., INC., priority 2017, dated 2022).
# Tests used:
# Format in all cases: cell-based
# [1] = test system: bifidobacteria; experiment: Experimental Example 1-1: addition test of amino acid and fructo-oligosaccharide to human feces suspension; settings: amino acid added together with 0.5% FOS, anaerobic culture 4 days at 37° C., quantitative PCR, compared with FOS alone
# Method: The PBS solutions for the Examples and Comparative Examples shown in Table 1-1 were prepared and used as media for a feces culture. PBS alone was used as a control. Fructo-oligosaccharide (FOS) manufactured by Wako Pure Chemical Industries, Ltd. (#064-02385) was used.
# (§1) Thereafter, 10 ml of each solution was dispensed into glass vials and the glass vials were sterilized by autoclave, made anaerobic, and sealed with a butyl rubber stopper. The feces suspension was prepared by collecting about 10 g of feces from 3 healthy individuals (one man and two women) in their 20s to 40s and suspending same in 80 ml of anaerobic PBS. The feces suspension was added to each vial by 0.5 ml, placed in an incubator at 37° C., and anaerobically cultured for 4 days with tumble blending once per day. After completion of the culture, an intestinal bacterial pellet was obtained from the entire amount of the culture medium by centrifugation (8,000×g, 5 min). DNA was extracted from this pellet using ISOFECAL for BeadsBeat (manufactured by NIPPON GENE CO., LTD.), and quantitative PCR was performed using GeneAce SYBR qPCR Mix α (manufactured by NIPPON GENE CO., LTD.). Quantitative PCR was performed under the conditions of 45 cycles of 95° C. for 30 sec and 60° C. for 60 sec after 95° C. for 10 min. Primers for quantitative PCR used for detection bifidobacteria are as follows:
# (§2) Using the results obtained by quantitative PCR, the relative amount when the control is 1 was calculated, and the results were normalized with z-score.
# [2] = test system: bifidobacteria; experiment: Experimental Example 1-2: addition test of amino acid and fructo-oligosaccharide to human feces suspension; settings: amino acid added together with 0.5% FOS, anaerobic culture 4 days, quantitative PCR, compared with FOS alone
# Method: as §1
# The PBS solutions for the Examples and Comparative Examples shown in Table 1-2 were prepared and used as media for a feces culture. […]
# as §2
# [3] = test system: bifidobacteria; experiment: Experimental Example 2: addition test of amino acid and galacto-oligosaccharide to human feces suspension; settings: amino acid added together with 0.5% GOS, anaerobic culture 4 days, quantitative PCR, compared with GOS alone
# Method: as §1
# The PBS solutions for the Examples and Comparative Examples shown in Table 2 were prepared and used as media for a feces culture. […]
# as §2
Compound,proliferation of bifidobacteria [1],proliferation of bifidobacteria [2],proliferation of bifidobacteria [3]
"CC(C)[C@H](N)C(=O)O [Val, L-valine]",greater proliferation of bifidobacteria than that with FOS alone,,
"N[C@@H](Cc1c[nH]cn1)C(=O)O [His, L-histidine]",,greater proliferation of bifidobacteria than that with FOS alone,
"O=C(O)[C@@H]1CCCN1 [Pro, L-proline]",,greater proliferation of bifidobacteria than that with FOS alone,
"C[C@H](N)C(=O)O [Ala, L-alanine]",greater proliferation of bifidobacteria than that with FOS alone,,
"NCCCC[C@H](N)C(=O)O [Lys, L-lysine]",greater proliferation of bifidobacteria than that with FOS alone,,greater proliferation of bifidobacteria than that with GOS alone
"NC(=O)CC[C@H](N)C(=O)O [Gln, L-glutamine]",greater proliferation of bifidobacteria than that with FOS alone,,
"N[C@@H](CCC(=O)O)C(=O)O [Glu, L-glutamic acid]",greater proliferation of bifidobacteria than that with FOS alone,,greater proliferation of bifidobacteria than that with GOS alone
"CC[C@H](C)[C@H](N)C(=O)O [Ile, L-isoleucine]",greater proliferation of bifidobacteria than that with FOS alone,,
